Structures can show the parent of a compound that is named as a salt.

One test concerns the target T1, SAA binding to heparin (HS-GAG) (Homo sapiens, UniProt P0DJI8).
T1 sequence (P0DJI8 19-122): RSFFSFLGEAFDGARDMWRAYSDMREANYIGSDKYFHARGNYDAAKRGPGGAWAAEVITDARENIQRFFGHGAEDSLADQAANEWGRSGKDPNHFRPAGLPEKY
Nature of the test: Inhibition of SAA binding to immobilized heparin-BSA (ELISA). On the set-up: species or system porcine. The conditions noted are these: 30 μM compound; SAA, heparin-BSA; read-out: Serum Amyloid A/Heparin Activity (% inhibition class). The method, then: Porcine intestinal mucosa heparin conjugated to Bovine Serum Albumin (Heparin-BSA) was prepared as described (Najjam, S. et al. 1997, Cytokine 12, 1013-1022). Heparin is a sulfated HS-GAG and is commonly used as a HS-GAG in biochemical and binding assays (Lindahl, U. and Kjellen, L. (2013) ibid). Heparin-BSA at 0.01 mg/ml in Phosphate Buffered Saline (PBS; pH 7.4) was added to a 96 well polystyrene ELISA plate (NUNC Cat. No. 449824; 100 μl per well) and incubated Over Night (ON) at 4 degrees Celsius. For negative controls, ELISA plates were coated with BSA instead of Heparin-BSA, using the same procedure. Following the incubation, the plate was washed consecutively, by immersion, with de-ionized water and PBS (pH 7.4). The ELISA plate was then blocked with nonfat milk (2%, 200 μl per well) for 2 hours at Room Temperature (RT) with gentle shaking. Following blocking, the plate was washed with de-ionized water then PBS (pH 7.4). GBAPs were dissolved and diluted in PBS (pH 6.5, supplemented with 0.1% BSA) at desired concentrations, added to the ELISA plates containing immobilized Heparin-BSA (100 μl per well) and incubated for 2 hours at RT with gentle shaking. Following incubation, the plate was washed with de-ionized water and three times with PBS (pH 6.5) plus Tween. Bound GBAP was detected by a monoclonal antibody specific for that GBAP, followed by incubation with secondary antibody conjugated to horseradish peroxidase (HRP). Antibody was diluted in PBS (pH 6.5 supplemented with 1% BSA). Following each incubation with antibody, the plate was washed with de-ionized water and three times with PBS (pH 6.5) wash buffer containing 0.1% Tween. The peroxidase substrate chromogen, TMB (Dako Cat. No. S1599) was added (100 μl per well) to the ELISA plate and incubated at room temperature. After 5 minutes ELISA Stop Solution (hydrochloric acid 1N, sulfuric acid 3N) was added (100 μl per well) to stop the peroxidase catalyzed colorimetric reaction. The Optical Density of the samples was measured at 450 nm using an ELISA plate reader (BioTek Synergy H1). Following color development, the % inhibition compared to control (BSA-coated plates) was determined. IC-50s were calculated using GraphPad Prism software.
The assay was performed as described in Example 43, with the following modifications. Following to coating the plates with Heparin-BSA, plates were washed as described. The compounds were dissolved in DMSO at 10 mM final concentration and further diluted prior to assay. DMSO concentration in the screening well was up to 2%. Individual compounds were co-incubated with SAA on plates containing immobilized heparin. Serum amyloid A (SAA) from PeProtech (NJ, USA, Cat. No. 300-53) was dissolved in DMSO, quickly frozen and kept in aliquots at −80 degrees Celsius. SAA dissolved in Tris buffer (pH 6.5, supplemented with BSA, 0.1%) was added to the ELISA plate (100 μl per well) and incubated for 2 hours at RT with gentle shaking. Following the incubation, the plate was washed with de-ionized water and three times with Tris Buffered Saline (TBS, pH 6.5) plus Tween. Bound SAA was detected by Anti-SAA Monoclonal Antibody (R&D System Cat. No. MAB30192), followed by secondary anti-IgG antibody conjugated to HRP (R&D System, Cat. No. HAF007). Antibody was diluted in TBS antibody buffer (pH6.5 supplemented with 1% BSA). Following each incubation with antibody, the plate was washed with de-ionized water and three times with TBS (pH6.5) wash buffer containing 0.1% Tween. Following to color development with TMB, as described in Example 43, the Optical Density of the samples was measured at 450 nm using an ELISA plate reader. Following color development, the % inhibition compared to control (no compound, DMSO control) for every compound was determined.
As described in Example 43, Heparin in the form of Heparin-BSA conjugate is used as a source of HS-GAG. For each compound IC-50 value in SAA—heparin-BSA binding assay is shown in μM (micromolar). […]
For orientation: In an ELISA, binding on a coated surface is turned into a signal by an enzyme label.
As for `C[N+](C)(C)Cc1ccc(/C=N\Nc2ccnc3ccc(Cl)cc23)cc1` [Compound 4, (Z)-1-(4-((2-(6-chloroquinolin-4-yl)hydrazineylidene)methyl)phenyl)—N,N,N-trimethylmethanaminium iodide], the inhibition at 30 µM was under 30%.

For `Fc1ccc2c(N/N=C/c3ccc(CN4CCOCC4)cc3)ccnc2c1` [Compound 6, (E)-4-(4-((2-(7-fluoroquinolin-4-yl)hydrazono)methyl)benzyl)morpholine], the inhibition at 30 µM was over 30%.

As to `CN1CCN(Cc2ccc(/C=N/Nc3ccnc4cc(Cl)ccc34)cc2)CC1` [Compound 7, (E)-7-chloro-4-(2-(4-((4-methylpiperazin-1-yl)methyl)benzylidene)hydrazinyl)quinolone], the inhibition at 30 µM is over 30%.

As for `C[n+]1ccc(/C=N\Nc2ccnc3ccccc23)cc1` [Compound 9, (Z)-1-methyl-4-((2-(quinolin-4-yl)hydrazono)methyl)pyridin-1-ium iodide], the inhibition at 30 µM is under 30%.

For `O=S1(=O)CCN(Cc2ccc(/C=N/Nc3ccnc4cc(F)ccc34)cc2)CC1` [Compound 10, (E)-4-(4-((2-(7-fluoroquinolin-4-yl)hydrazono)methyl)benzyl)thiomorpholine 1,1-dioxide], the inhibition at 30 µM was under 30%.

Staying with this test, now noted: SAA, heparin-BSA; read-out: Serum Amyloid A/Heparin Activity (IC-50).
For `Cc1cc(-n2ccnc2)ccc1/C=N/Nc1ccnc2cc(Cl)ccc12` [Compound 1, (E)-4-((E)-(4-(1H-imidazol-1-yl)-2-methylbenzylidene)hydrazono)-7-chloro-1,4-dihydroquinoline], the IC50 was found to be 8.16 µM.

Take `C/C(=N\Nc1ncnc2cc(Cl)ccc12)c1ccc(-n2cc(C)nc2C)nc1` [Compound 18, (E)-7-chloro-4-(2-(1-(6-(2,4-dimethyl-1H-imidazol-1-yl)pyridin-3-yl)ethylidene)hydrazineyl)quinazoline phosphoric acid salt]: the IC50 was 22.2 µM.

As to `C/C(=N\Nc1ncnc2cc(F)ccc12)c1ccc(-n2cnc(C)c2C)nc1` [Compound 21, (E)-4-(2-(1-(6-(4,5-dimethyl-1H-imidazol-1-yl)pyridin-3-yl)ethylidene)hydrazineyl)-7-fluoroquinazoline], the IC50 amounted to 85.2 µM.

Take `C/C(=N\Nc1nncc2cc(Cl)ccc12)c1ccc(-n2cc(C)nc2C)nc1` [Compound 24, (E)-6-chloro-1-(2-(1-(6-(2,4-dimethyl-1H-imidazol-1-yl)pyridin-3-yl)ethylidene)hydrazineyl)phthalazine]: the IC50 was found to be 7.89 µM.

Staying with this test, now noted: read-out: Serum Amyloid A/Heparin Activity (% inhibition class).
On to `Clc1ccc2c(N/N=C/c3ccc(-n4cccn4)cc3)ccnc2c1` [Compound 3, (E)-4-((E)-(4-(1H-pyrazol-1-yl)benzylidene)hydrazono)-7-chloro-1,4-dihydroquinoline], for which the inhibition at 30 µM is over 30%.

`C(=N\Nc1ccc2c3c(cccc13)CC2)/c1ccc(-n2ccnc2)cc1` [Compound 8, (E)-1-(4-((2-(1,2-dihydroacenaphthylen-5-yl)hydrazineylidene)methyl)phenyl)-1H-imidazole]: the inhibition at 30 µM was under 30%.

In the case of `COc1cc2nccc(NN=Cc3ccc(-n4ccnc4)c(C)c3)c2cc1OC` [Compound 11, 4-(2-(4-(1H-imidazol-1-yl)-3-methylbenzylidene)hydrazineyl)-6,7-dimethoxyquinoline hydrochloride], the inhibition at 30 µM is under 30%.

Turning to `COc1cc2nccc(N/N=C/c3ccc(-n4ccnc4)c(OC)c3)c2cc1OC` [Compound 13, (E)-4-(2-(4-(1H-imidazol-1-yl)-3-methoxybenzylidene)hydrazineyl)-6,7-dimethoxyquinoline phosphate], the inhibition at 30 µM is under 30%.

Regarding `CN1CCN(c2cc(Nc3ccnc4cc(Cl)ccc34)ccn2)CC1` [Compound 20, 7-chloro-N-(2-(4-methylpiperazin-1-yl)pyridin-4-yl)quinolin-4-amine], the inhibition at 30 µM was over 30%.

Turning to `CC(=NNc1ccnc2cc(Cl)ccc12)c1ccc(-n2cc[n+](C)c2)nc1` [Compound 23, 1-(5-(1-(2-(7-chloroquinolin-4-yl)hydrazineylidene)ethyl)pyridin-2-yl)-3-methyl-1H-imidazol-3-ium iodide], the inhibition at 30 µM was under 30%.

As for `C/C(=N\Nc1ncnc2cc(F)ccc12)c1ccc(-n2cc[n+](C)c2)nc1` [Compound 26, (E)-1-(5-(1-(2-(7-fluoroquinazolin-4-yl)hydrazineylidene)ethyl)pyridin-2-yl)-3-methyl-1H-imidazol-3-ium phosphoric acid salt], the inhibition at 30 µM is under 30%.

The test is the same for the next values; noted with them: read-out: Serum Amyloid A/Heparin Activity (IC-50); SAA, heparin-BSA.
Take `Cc1ncn(-c2ccc(/C=N/Nc3ccnc4cc(Cl)ccc34)cc2)c1C` [Compound 2, (E)-7-chloro-4-((E)-(4-(4,5-dimethyl-1H-imidazol-1-yl)benzylidene)hydrazono)-1,4-dihydroquinoline]: the IC50 was found to be 16 µM.

In the case of `Fc1ccc2c(N/N=C/c3ccc(-n4ccnc4)cc3)ccnc2c1` [Compound 5, (E)-4-(2-(4-(1H-imidazol-1-yl)benzylidene)hydrazinyl)-7-fluoroquinoline], the IC50 turned out to be 24 µM.

As to `COc1ccc2c(NN=Cc3ccc(-n4ccnc4)c(C)c3)ccnc2c1` [Compound 12, 4-(2-(4-(1H-imidazol-1-yl)-3-methylbenzylidene)hydrazineyl)-7-methoxyquinoline], the IC50 came out at 31.7 µM.

Regarding `Clc1ccc2c(N/N=C/c3ccc(-n4ccnc4)nc3)ccnc2c1` [Compound 14, (E)-4-(2-((6-(1H-imidazol-1-yl)pyridin-3-yl)methylene)hydrazineyl)-7-chloroquinoline hydrochloride], the IC50 is 7.67 µM.

With `Cc1ncn(-c2ccc(/C=N\Nc3ncnc4cc(Cl)ccc34)cn2)c1C` [Compound 15, 7-chloro-4-(2-((6-(4,5-dimethyl-1H-imidazol-1-yl)pyridin-3-yl)methylene)hydrazineyl)quinazoline hydrochloride], the IC50 came out at 12.3 µM.

Take `C/C(=N\Nc1ncnc2cc(Cl)ccc12)c1ccc(-n2cnc(C)c2C)nc1` [Compound 16, 7-chloro-4-(2-(1-(6-(4,5-dimethyl-1H-imidazol-1-yl)pyridin-3-yl)ethylidene)hydrazineyl)quinazoline phosphate]: the IC50 came to 13.9 µM.

On to `C/C(=N\Nc1ncnc2cc(Cl)ccc12)c1ccc(-n2cc[n+](C)c2)nc1` [Compound 17, (E)-1-(5-(1-(2-(7-chloroquinazolin-4-yl)hydrazineylidene)ethyl)pyridin-2-yl)-3-methyl-1H-imidazol-3-ium iodide phosphoric acid salt], for which the IC50 worked out at 34.9 µM.

For the compound `C/C(=N\Nc1ncnc2ccccc12)c1ccc(-n2cc(C)nc2C)nc1` [Compound 19, (E)-4-(2-(1-(6-(2,4-dimethyl-1H-imidazol-1-yl)pyridin-3-yl)ethylidene)hydrazineyl)quinazoline], the IC50 came out at 8.59 µM.

For `CC(=NNc1ccnc2cc(Cl)ccc12)c1ccc(-n2cnc(C)c2C)nc1` [Compound 22, 7-chloro-4-(2-(1-(6-(4,5-dimethyl-1H-imidazol-1-yl)pyridin-3-yl)ethylidene)hydrazineyl)quinoline], the IC50 was determined as 83.2 µM.

As to `Cc1ncn(-c2ccc(Nc3ncnc4cc(Cl)ccc34)cn2)c1C` [Compound 25, 7-chloro-N-(6-(4,5-dimethyl-1H-imidazol-1-yl)pyridin-3-yl)quinazolin-4-amine], the IC50 is 40.9 µM.

The record behind these values is US20240398783A1, “Compounds and Pharmaceutical Compositions Comprising Inhibitors of Amyloid Peptide Interactions with Glycosaminoglycans, Methods of Treatment and Use Thereof” (Gismo Therapeutics, Inc., priority 2021, published 2024).
